Experimental data published in patent publication US11753407B2, “Compounds for treating spinal muscular atrophy” (PTC Therapeutics, Inc., priority 2012, dated 2023).
Each block holds one molecule with its values, some of them ahead of it.

Legend:
[1] = system: SMN2 minigene mRNA (SMN2-A minigene) in HEK293H cells; experiment: SMN2 minigene mRNA splicing RT-qPCR assay in cultured cells; format: cell-based, human; settings: Homo sapiens, HEK293-H; concentration increasing full length SMN2 mRNA 1.5-fold relative to vehicle-treated cells; HEK293H cells with SMN2-A minigene, 24 hours, 7-point concentration data; read-out: EC1.5x for production of full length SMN2 mRNA
Procedure, shortened: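 Potency reflects the concentration that lifts full-length SMN2 minigene mRNA 1.5-fold above vehicle in stably transfected HEK293H cells after 24 h of treatment. Transcript abundance came from RT-qPCR as (1+E)^−Ct, normalized to GAPDH; endogenous SMN1/SMN2 are not detected.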

[2] = system: Smn protein in SMA patient fibroblast cells (GM03813); experiment: Smn protein assay in cultured cells (SMN HTRF); format: cell-based, human; settings: SMA patient fibroblast cells, 48 hours; for EC1.5x for Smn protein expression: 7-point concentration curve, SMN HTRF, concentration producing 1.5 times Smn protein vs DMSO vehicle control; for maximum fold (Fold) increase of Smn protein: 7-point concentration data, fold relative to vehicle control
Procedure, shortened: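 Smn protein abundance in treated SMA fibroblasts was measured by HTRF after 48 h compound exposure. The reported EC1.5× is the concentration producing 1.5 times vehicle Smn levels.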

melting point: 155 to 157 °C
Structure (SMILES): CCN1CCC(c2ccc3nc(-c4ccc(OC)c(OC)c4)cc(=O)n3c2)CC1 [Compound 404, 2-(3,4-dimethoxyphenyl)-7-(1-ethylpiperidin-4-yl)-4H-pyrido[1,2-a]pyrimidin-4-one]
EC (1.5-fold increase) [1]: 0.3 to 1 µM | EC1.5x for Smn protein expression [2]: ** (an EC1.5× between >1 μM and ≤3 μM is indicated by two stars (**)) | maximum fold (Fold) increase of Smn protein [2]: **** (a fold increase between >1.5 and ≤1.65 is indicated by four stars (****))

melting point: 156 to 158 °C
Structure (SMILES): CN[C@H]1CC[C@@H](c2ccc3nc(-c4ccc(OC)c(OC)c4)cc(=O)n3c2)CC1 [Compound 405, 2-(3,4-dimethoxyphenyl)-7-[cis-4-(methylamino)cyclohexyl]-4H-pyrido[1,2-a]pyrimidin-4-one]
EC (1.5-fold increase) [1]: 0.1 to 0.3 µM | EC1.5x for Smn protein expression [2]: *** (an EC1.5× between >0.3 μM and ≤1 μM is indicated by three stars (***)) | maximum fold (Fold) increase of Smn protein [2]: **** (a fold increase between >1.5 and ≤1.65 is indicated by four stars (****))

melting point: 126 to 129 °C
Structure (SMILES): COc1ccc(-c2cc(=O)n3cc(C4CCCNC4)ccc3n2)cc1OC (stereo not shown) [Compound 406, 2-(3,4-dimethoxyphenyl)-7-(piperidin-3-yl)-4H-pyrido[1,2-a]pyrimidin-4-one]
EC (1.5-fold increase) [1]: 0.3 to 1 µM | EC1.5x for Smn protein expression [2]: * (An EC1.5× for Smn protein expression between >3 μM and ≤10 μM is indicated by one star (*)) | maximum fold (Fold) increase of Smn protein [2]: *** (a fold increase between >1.35 and ≤1.5 is indicated by three stars (***))

melting point: 178 to 183 °C
Structure (SMILES): COc1ccc(-c2cc(=O)n3cc(N4CCC(NC(C)C)CC4)cc(C)c3n2)cc1OC [Compound 416, 2-(3,4-dimethoxyphenyl)-9-methyl-7-[4-(propan-2-ylamino)piperidin-1-yl]-4H-pyrido[1,2-a]pyrimidin-4-one]
EC (1.5-fold increase) [1]: < 0.1 µM | EC1.5x for Smn protein expression [2]: ** (an EC1.5× between >1 μM and ≤3 μM is indicated by two stars (**)) | maximum fold (Fold) increase of Smn protein [2]: *** (a fold increase between >1.35 and ≤1.5 is indicated by three stars (***))

melting point: 183 to 189 °C
Structure (SMILES): COc1ccc(-c2cc(=O)n3cc(N4CCN5CCC[C@H]5C4)cc(C)c3n2)cc1OC [Compound 417, 2-(3,4-dimethoxyphenyl)-7-[(8aS)-hexahydropyrrolo[1,2-a]pyrazin-2(1H)-yl]-9-methyl-4H-pyrido[1,2-a]pyrimidin-4-one]
EC (1.5-fold increase) [1]: 0.1 to 0.3 µM | EC1.5x for Smn protein expression [2]: ** (an EC1.5× between >1 μM and ≤3 μM is indicated by two stars (**)) | maximum fold (Fold) increase of Smn protein [2]: **** (a fold increase between >1.5 and ≤1.65 is indicated by four stars (****))

melting point: 219 to 224 °C
Structure (SMILES): COc1ccc(-c2cc(=O)n3cc(N4CCC(N5CCOCC5)CC4)cc(C)c3n2)cc1OC [Compound 419, 2-(3,4-dimethoxyphenyl)-9-methyl-7-[4-(morpholin-4-yl)piperidin-1-yl]-4H-pyrido[1,2-a]pyrimidin-4-one]
EC (1.5-fold increase) [1]: 0.1 to 0.3 µM | maximum fold (Fold) increase of Smn protein [2]: ** (a fold increase between >1.2 and ≤1.35 is indicated by two stars (**))

Second part, the molecule before the results:

Structure (SMILES): COc1ccc(-c2cc(=O)n3cc(C4CCNCC4)ccc3n2)cc1F [Compound 403, 2-(3-fluoro-4-methoxyphenyl)-7-(piperidin-4-yl)-4H-pyrido[1,2-a]pyrimidin-4-one]
EC (1.5-fold increase) [1]: < 0.1 µM | EC1.5x for Smn protein expression [2]: ** (an EC1.5× between >1 μM and ≤3 μM is indicated by two stars (**)) | maximum fold (Fold) increase of Smn protein [2]: **** (a fold increase between >1.5 and ≤1.65 is indicated by four stars (****)) | melting point: 122 to 125 °C

Structure (SMILES): CCc1cc(C2=CCNCC2)cn2c(=O)cc(-c3ccc(OC)c(OC)c3)nc12 [Compound 408, 2-(3,4-dimethoxyphenyl)-9-ethyl-7-(1,2,3,6-tetrahydropyridin-4-yl)-4H-pyrido[1,2-a]pyrimidin-4-one]
EC (1.5-fold increase) [1]: < 0.1 µM | maximum fold (Fold) increase of Smn protein [2]: ** (a fold increase between >1.2 and ≤1.35 is indicated by two stars (**)) | melting point: 171 to 177 °C

Structure (SMILES): Cc1cn2cc(-c3ccc4nc(C5CCNCC5)cc(=O)n4c3)ccc2n1 [Compound 409, 7-(2-methylimidazo[1,2-a]pyridin-6-yl)-2-(piperidin-4-yl)-4H-pyrido[1,2-a]pyrimidin-4-one]
EC (1.5-fold increase) [1]: < 0.1 µM | EC1.5x for Smn protein expression [2]: **** (an EC1.5x≤0.3 μM is indicated by four stars (****)) | maximum fold (Fold) increase of Smn protein [2]: ***** (a fold increase >1.65 is indicated by five stars (*****)) | melting point: 255 to 258 °C

Structure (SMILES): Cc1cn2cc(-c3ccc4nc(C5CCNCC5)cc(=O)n4c3)cc(F)c2n1 [Compound 410, 7-(8-fluoro-2-methylimidazo[1,2-a]pyridin-6-yl)-2-(piperidin-4-yl)-4H-pyrido[1,2-a]pyrimidin-4-one]
EC (1.5-fold increase) [1]: < 0.1 µM | EC1.5x for Smn protein expression [2]: **** (an EC1.5x≤0.3 μM is indicated by four stars (****)) | maximum fold (Fold) increase of Smn protein [2]: ***** (a fold increase >1.65 is indicated by five stars (*****)) | melting point: 295 to 298 °C

Structure (SMILES): Cc1cn2cc(-c3ccc4nc(C5=CCN(C)CC5)cc(=O)n4c3)cc(F)c2n1 [Compound 411, 7-(8-fluoro-2-methylimidazo[1,2-a]pyridin-6-yl)-2-(1-methyl-1,2,3,6-tetrahydropyridin-4-yl)-4H-pyrido[1,2-a]pyrimidin-4-one]
EC (1.5-fold increase) [1]: < 0.1 µM | maximum fold (Fold) increase of Smn protein [2]: *** (a fold increase between >1.35 and ≤1.5 is indicated by three stars (***)) | melting point: 218 to 222 °C

Structure (SMILES): Cc1cn2cc(-c3cc(=O)n4cc(N5CCN(C6CC6)CC5)ccc4n3)cc(F)c2n1 [Compound 412, 7-(4-cyclopropylpiperazin-1-yl)-2-(8-fluoro-2-methylimidazo[1,2-a]pyridin-6-yl)-4H-pyrido[1,2-a]pyrimidin-4-one]
EC (1.5-fold increase) [1]: < 0.1 µM | EC1.5x for Smn protein expression [2]: **** (an EC1.5x≤0.3 μM is indicated by four stars (****)) | maximum fold (Fold) increase of Smn protein [2]: ***** (a fold increase >1.65 is indicated by five stars (*****)) | melting point: 254 to 258 °C

Structure (SMILES): Cc1cn2cc(-c3cc(=O)n4cc(C5=CCNCC5)ncc4n3)cc2c(C)n1.Cl.Cl [Compound 413, 2-(1,3-dimethylpyrrolo[1,2-a]pyrazin-7-yl)-7-(1,2,3,6-tetrahydropyridin-4-yl)-4H-pyrazino[1,2-a]pyrimidin-4-one hydrochloride (1:2)]
EC (1.5-fold increase) [1]: < 0.1 µM | EC1.5x for Smn protein expression [2]: **** (an EC1.5x≤0.3 μM is indicated by four stars (****)) | maximum fold (Fold) increase of Smn protein [2]: **** (a fold increase between >1.5 and ≤1.65 is indicated by four stars (****)) | melting point: > 300 °C

Structure (SMILES): CCc1cc(C2=CCN(C)CC2)cn2c(=O)cc(-c3ccc(OC)c(OC)c3)nc12 [Compound 415, 2-(3,4-dimethoxyphenyl)-9-ethyl-7-(1-methyl-1,2,3,6-tetrahydropyridin-4-yl)-4H-pyrido[1,2-a]pyrimidin-4-one]
EC (1.5-fold increase) [1]: < 0.1 µM | maximum fold (Fold) increase of Smn protein [2]: *** (a fold increase between >1.35 and ≤1.5 is indicated by three stars (***)) | melting point: 177 to 182 °C

Structure (SMILES): CCc1cc(C2=CCN(CC)CC2)cn2c(=O)cc(-c3ccc(OC)c(OC)c3)nc12 [Compound 418, 2-(3,4-dimethoxyphenyl)-9-ethyl-7-(1-ethyl-1,2,3,6-tetrahydropyridin-4-yl)-4H-pyrido[1,2-a]pyrimidin-4-one]
EC (1.5-fold increase) [1]: < 0.1 µM | maximum fold (Fold) increase of Smn protein [2]: *** (a fold increase between >1.35 and ≤1.5 is indicated by three stars (***)) | melting point: 148 to 153 °C

Structure (SMILES): Cc1cn2nc(-c3cc(=O)n4cc(N5CCNCC5)ccc4n3)cc2cn1 [Compound 420, 2-(6-methylpyrazolo[1,5-a]pyrazin-2-yl)-7-(piperazin-1-yl)-4H-pyrido[1,2-a]pyrimidin-4-one]
EC (1.5-fold increase) [1]: < 0.1 µM | EC1.5x for Smn protein expression [2]: **** (an EC1.5x≤0.3 μM is indicated by four stars (****)) | maximum fold (Fold) increase of Smn protein [2]: **** (a fold increase between >1.5 and ≤1.65 is indicated by four stars (****)) | melting point: 202 to 204 °C

Structure (SMILES): Cc1nc2ccc(-c3cc(=O)n4cc(C5=CCN(C)CC5)ncc4n3)cc2o1 [Compound 422, 2-(2-methyl-1,3-benzoxazol-6-yl)-7-(1-methyl-1,2,3,6-tetrahydropyridin-4-yl)-4H-pyrazino[1,2-a]pyrimidin-4-one]
EC (1.5-fold increase) [1]: < 0.1 µM | EC1.5x for Smn protein expression [2]: ** (an EC1.5× between >1 μM and ≤3 μM is indicated by two stars (**)) | maximum fold (Fold) increase of Smn protein [2]: *** (a fold increase between >1.35 and ≤1.5 is indicated by three stars (***)) | melting point: 240 to 242 °C

Structure (SMILES): CCN1CC=C(c2cn3c(=O)cc(-c4ccc5nc(C)oc5c4)nc3cn2)CC1 [Compound 423, 7-(1-ethyl-1,2,3,6-tetrahydropyridin-4-yl)-2-(2-methyl-1,3-benzoxazol-6-yl)-4H-pyrazino[1,2-a]pyrimidin-4-one]
EC (1.5-fold increase) [1]: < 0.1 µM | EC1.5x for Smn protein expression [2]: *** (an EC1.5× between >0.3 μM and ≤1 μM is indicated by three stars (***)) | maximum fold (Fold) increase of Smn protein [2]: **** (a fold increase between >1.5 and ≤1.65 is indicated by four stars (****)) | melting point: 225 to 227 °C
